Laboratory results from BigSolDB 2.1.

Details: in water

| SMILES | solubility (mole fraction) (298.15 K) | solubility (mole fraction) (303.15 K) | solubility (mole fraction) (308.15 K) | solubility (mole fraction) (313.15 K) | solubility (mole fraction) (318.15 K) | solubility (mole fraction) (323.15 K) |
| --- | --- | --- | --- | --- | --- | --- |
| C=CCc1ccc(O)c(OC)c1 | 0.000228 | 0.00023 | 0.000254 | 0.000254 | 0.000286 | 0.000312 |
| Cc1ccc(C(C)C)cc1O | 0.000144 | 0.000155 | 0.000164 | 0.000169 | 0.00017 | 0.000172 |
| C=CC(C)(O)CCC=C(C)C (stereo not drawn) | 0.000181 | 0.000332 | 0.000472 | 0.000592 | 0.000844 | 0.00111 |
| Cc1ccccc1 | 0.000113 |  | 0.000118 | 0.00012 |  | 0.000126 |
| Cc1ccc(C(C)C)cc1 | 4.8e-06 | 6.9e-06 | 9.9e-06 | 1.24e-05 | 1.51e-05 | 1.89e-05 |
| CC(C)=CCC/C(C)=C/CO | 0.000103 | 0.000139 | 0.000375 | 0.000643 | 0.000922 | 0.00127 |
| Cc1ccc(C)cc1 | 2.62e-05 |  | 3.07e-05 |  |  | 3.65e-05 |
| CC(C)=CCCC(C)CCO (stereo not drawn) | 0.000218 | 0.000187 | 0.000187 | 0.000208 | 0.000249 | 0.000308 |
